Values of other authors in patent publication EP0266549A1, “Cinnamyl amines, process for their preparation and pharmaceutical compositions containing them” (BOEHRINGER MANNHEIM ITALIA S.P.A., priority 1986, dated 1988).
Structures can show the parent of a compound that is named as a salt.

Settings: in vitro; Arch. lnt. Pharmacology, 272, 283, 1984; cited from earlier work

Fc1ccc(C(c2ccc(F)cc2)N2CCN(C/C=C/c3ccccc3)CC2)cc1 [Flunarizine HCl]
activity as "radical scavenger": very active
